# Results as given in ChEMBL document CHEMBL1201862, “PubChem BioAssay data set” (2004).
#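 Assay format: 96-well plates, 48-hour exposure. Abbreviation: GI50, concentration required for 50% inhibition of growth.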 Activity calls are given as the source filed them. No stated cut-off is given here; in the data, active = GI50 up to about 1.1 µM and inactive = higher.
# Experiments:
# Experiment in all cases: NCI-60 cell line screen, 48 h
# [1] = system: UACC-62
# [2] = system: RXF 631
# [3] = system: HCT-15
# [4] = system: M19-MEL
# [5] = system: OVCAR-8
# [6] = system: SNB-78
# [7] = system: SK-MEL-5
# [8] = system: UACC-257
# [9] = system: DMS-273
# [10] = system: A549
# [11] = system: EKVX
# [12] = system: SNB-75
# [13] = system: KM12
# [14] = system: SN12C
# [15] = system: DLD-1
# [16] = system: CAKI-1
# [17] = system: SF-539
# [18] = system: HOP-92
# [19] = system: SNB-19
# [20] = system: KM-20L2
# [21] = system: NCI-H226
# [22] = system: UO-31
# [23] = system: OVCAR-4
# [24] = system: LOX IMVI
# [25] = system: 786-0
# [26] = system: OVCAR-3
# [27] = system: Malme-3M
# [28] = system: TK-10
# [29] = system: NCI-H460
# [30] = system: XF498
# [31] = system: HOP-62
# [32] = system: OVCAR-5
# [33] = system: SF-268
# [34] = system: HL-60
# [35] = system: NCI-H522
# [36] = system: SF-295
# [37] = system: SK-MEL-28
# [38] = system: LXFL 529
# [39] = system: A498
# [40] = system: RXF 393
# [41] = system: DMS-114
# [42] = system: ACHN
# [43] = system: HOP-18
# [44] = system: U-251
# [45] = system: CCRF-CEM
# [46] = system: MOLT-4
# [47] = system: RPMI-8226
# [48] = system: SW-620
# [49] = system: IGROV-1
# [50] = system: HCT-116
# [51] = system: K562
# [52] = system: SK-MEL-2
# [53] = system: HCC 2998
# [54] = system: NCI-H23
# [55] = system: M14
# [56] = system: HT-29
structure (smiles),measurement,setting,value
COc1ccc(C(=O)C(C(=O)CCC(=O)Nc2ccc(Cl)c(Cl)c2)c2ccc(OC)cc2)cc1 (stereo unspecified),GI50,[1],> 100 µM (inactive)
same,GI50,[2],> 100 µM (inactive)
same,GI50,[3],> 100 µM
same,GI50,[4],> 100 µM (inactive)
same,GI50,[5],> 100 µM (inactive)
same,GI50,[6],> 100 µM (inactive)
same,GI50,[7],> 100 µM (inactive)
same,GI50,[8],> 100 µM (inactive)
same,GI50,[9],> 100 µM (inactive)
same,GI50,[10],> 100 µM (inactive)
same,GI50,[11],> 100 µM (inactive)
same,GI50,[12],44.9 µM (inactive)
same,GI50,[13],> 100 µM (inactive)
same,GI50,[14],> 100 µM (inactive)
same,GI50,[15],> 100 µM (inactive)
same,GI50,[16],> 100 µM (inactive)
same,GI50,[17],> 100 µM (inactive)
same,GI50,[18],> 100 µM (inactive)
same,GI50,[19],> 100 µM (inactive)
same,GI50,[20],> 100 µM (inactive)
same,GI50,[21],> 100 µM (inactive)
same,GI50,[22],> 100 µM (inactive)
same,GI50,[23],> 100 µM (inactive)
same,GI50,[24],> 100 µM (inactive)
same,GI50,[25],> 100 µM (inactive)
same,GI50,[26],> 100 µM (inactive)
same,GI50,[27],> 100 µM (inactive)
same,GI50,[28],> 100 µM (inactive)
same,GI50,[29],> 100 µM (inactive)
same,GI50,[30],> 100 µM (inactive)
same,GI50,[31],> 100 µM (inactive)
same,GI50,[32],> 100 µM (inactive)
same,GI50,[33],> 100 µM (inactive)
same,GI50,[34],97.1 µM (inactive)
same,GI50,[35],> 100 µM (inactive)
same,GI50,[36],> 100 µM (inactive)
same,GI50,[37],> 100 µM (inactive)
same,GI50,[38],> 100 µM (inactive)
same,GI50,[39],> 100 µM (inactive)
same,GI50,[40],> 100 µM (inactive)
same,GI50,[41],> 100 µM (inactive)
same,GI50,[42],> 100 µM (inactive)
same,GI50,[43],> 100 µM (inactive)
same,GI50,[44],> 100 µM (inactive)
same,GI50,[45],> 100 µM (inactive)
same,GI50,[46],> 100 µM (inactive)
same,GI50,[47],> 100 µM (inactive)
same,GI50,[48],> 100 µM (inactive)
same,GI50,[49],> 100 µM (inactive)
same,GI50,[50],> 100 µM (inactive)
same,GI50,[51],> 100 µM (inactive)
same,GI50,[52],> 100 µM (inactive)
same,GI50,[53],> 100 µM (inactive)
same,GI50,[54],> 100 µM (inactive)
same,GI50,[55],> 100 µM (inactive)
same,GI50,[56],> 100 µM (inactive)
